The subject of data set [1] is Staphylococcus aureus. The data set can be described thus: Antibacterial susceptibility testing: IC90 determination (broth microdilution, resazurin fluorescence). The class given is cell-based. The conditions noted are these: 90% inhibitory concentration for bacterial growth, Mueller Hinton broth, 35° C., 16-20 hours, strain not given. Here is the method:
Preparation of Bacterial Suspensions for Susceptibility Testing
The following bacteria were used: Staphylococcus aureus ATCC 29213, methicillin-resistant Staphylococcus aureus (MRSA) ATCC 700788 and Escherichia coli ATCC 35218. The bacteria used in this study were grown overnight in flasks containing 100 ml Mueller-Hinton broth (Difco cat. nr. 0757-17) in sterile de-ionized water, with shaking, at 37° C. Stocks were store at −70° C. until use.
Bacteria were incubated on a tryptic soy agar plate containing 5% sheep blood (Becton Dickinson cat. nr. 254053) for 18-24 hours at 35° C. in aerobic conditions (first passage). For the second passage, fresh Mueller-Hinton broth is inoculated with 5-10 colonies and grown overnight at 35° C. until turbidity (reaching log-phase) in aerobic conditions is reached. The bacterial suspension is then adjusted to 0.5 McFarland density and further diluted 1:100 in Mueller Hinton broth medium. This is used as inoculum.
Antibacterial Susceptibility Testing: IC90 Determination
MIC assays were performed by the broth microdilution method in a 96-well format (flat-bottom microtitre plates) with a final volume of 0.1 ml Mueller Hinton broth containing two-fold serial dilutions of compounds and inoculated with 5×10^5 CFU/ml of bacteria (standard inoculum size according to CLSI guidelines). Inhibitors are typically varied over the range of 63 to 0.49 μM. The final DMSO concentration in the assay was 1.25% (maximum tolerable DMSO concentration=6%). In the assays where the effect of human serum on the activity of the compounds against S. aureus was tested, human serum was added at a final concentration of 10%. The plates were incubated at 35° C. for 16-20 hours. At the end of incubation the bacterial growth was quantified fluorometrically. For this, resazurin was added to all wells and the plates were re-incubated. The incubation time is dependent on the type of bacteria. A change in color from blue to pink indicated the growth of bacteria. The fluorescence was read in computer-controlled fluorometer (Fluoroskan Ascent FL, Labsystems) at an excitation wavelength 540 nm and an emission wavelength of 590 nm. The % growth inhibition achieved by the compounds was calculated according to standard methods. The IC90 (expressed in μg/ml) was defined as the 90% inhibitory concentration for bacterial growth. A panel of reference compounds were simultaneously tested for QC approval.
(In general: Dilution methods test growth across graded concentrations, often in twofold steps.)

A further data set can be described thus: Cytotoxicity MTT assay. Format: cell-based. The conditions noted are these: human, HelaM cells, concentration that causes 50% reduction in cell viability. Here is the method: Cytotoxicity of the compounds was evaluated using the MTT assay. Human HelaM cells grown in 96-well plates were exposed to serial dilutions of the tested compounds (final volume of 0.2 ml) and incubated for 72 hours at 37° C. and 5% CO2 Inhibitors are typically varied over the range of 25 to 0.8 μM. The final DMSO concentration in the assay is 0.5%. MTT (3-(4,5-Dimethylthiazol-2-yl)-2,5-diphenyltetrazolium bromide, a tetrazole) was added and reduced to purple formazan only in living cells. Solubilization of the formazan crystals was achieved by adding 100 μl 2-propanol. Cell viability was determined by measuring the absorbance of the reduced formazan, giving a purple color, at 540 nm and 690 nm. The absorbance measured at 690 nm was automatically subtracted from the absorbance at 540 nm, to eliminate the effects of non-specific absorption. The percent cytotoxicity achieved by the compounds was calculated according to standard methods. Cytotoxicity is reported as CC50, the concentration that causes a 50% reduction in cell viability.
In general terms: Formazan colour is commonly taken as a measure of viable cells.

For data set [2], the system named is Staphylococcus aureus. The data set can be described thus: MIC determination of compounds on ECO/PAE/STA in microplates. Format: cell-based. The conditions noted are these: lowest concentration with no growth (90% inhibition of growth), 18-20 hours at 37° C., visual, strain not given.

Structures are written as SMILES. In brackets after ≈: the same amount, converted by molar mass. Where only a bound is given, the exact number is not on record here.

`CC(C)(C)CN1CCC(c2nc(-c3cncnc3)ncc2-c2cccc(C#N)c2)CC1` [Compound 68] showed a melting point of 163 to 170 °C. In the data set on Staphylococcus aureus [1], this compound displayed an IC90 of 6.1 µg/mL (≈ 14.8 µM). Moreover, the CC50 at 72 h in “Cytotoxicity MTT assay” was more than 10.4 µg/mL.
For `CC(C)(C)CN1CCC(c2nc(-c3cccnc3)ncc2-c2cccc(C#N)c2)CC1` [Compound 69], in that order: 148 to 150 °C, 3.02 µg/mL (≈ 7.34 µM) and more than 10.3 µg/mL.
The compound `CC(C)(C)CNCCNc1nc(-c2ccncc2)ncc1-c1cccc(C#N)c1` [Compound 73] yielded an MIC90 against Staphylococcus aureus [2] of more than 64 µg/mL.
The compound `CC(C)(C)CN1CCN(c2nc(-c3ccncc3)ncc2-c2cccc(C#N)c2)CC1` [Compound 74] displayed a melting point of 155 to 164 °C. In the data set on Staphylococcus aureus [2], this compound gave an MIC90 of 0.125 µg/mL (≈ 0.303 µM).
The compound `CC(C)(C#N)CN1CCC(c2nc(-c3ccncc3)ncc2-c2cccc(C#N)c2)CC1` [Compound 75] yielded a melting point of 79 to 87 °C. The compound also had an MIC90 in the data set on Staphylococcus aureus [2] of 0.5 µg/mL (≈ 1.18 µM).
For `N#Cc1cccc(-c2cnc(-c3ccc(F)cc3)nc2C2CCN(CC(F)(F)F)CC2)c1` [Compound 76], the melting point lay within 157 to 158 °C. Moreover, the MIC90 against Staphylococcus aureus [2] was 0.125 µg/mL (≈ 0.284 µM).
`CC(C)(C)C(=O)N1CCC(c2nc(-c3ccc(F)cc3)ncc2-c2cccc(C#N)c2)CC1` [Compound 77] came in with a melting point of 75 to 80 °C. Besides, the MIC90 with Staphylococcus aureus [2] stood at 0.25 µg/mL (≈ 0.565 µM).
In the case of `COc1cccc(-c2cnc(-c3ccc(F)cc3)nc2C2CCN(CC(C)(C)C#N)CC2)c1` [Compound 78], the melting point was 119 °C. For the same compound, the MIC90 against Staphylococcus aureus [2] came to 0.125 µg/mL (≈ 0.281 µM).
`COc1cccc(-c2cnc(-c3ccc(OC)nc3)nc2C2CCN(CC(F)(F)F)CC2)c1` [Compound 79] had an MIC90 against Staphylococcus aureus [2] of 0.125 µg/mL (≈ 0.273 µM).
Take `CC(C)(C#N)CN1CCC(c2nc(-c3ccc(F)cc3)ncc2-c2cccc(C#N)c2)CC1` [Compound 80]: the melting point came to 171 °C. For the same compound, in the data set with Staphylococcus aureus [2], the MIC90 was 0.125 µg/mL (≈ 0.284 µM).
In the case of `COc1cccc(-c2cnc(-c3ccc(OC)nc3)nc2C2CCN(CC(C)(C)C#N)CC2)c1` [Compound 81], in the data set with Staphylococcus aureus [2], the MIC90 was 0.125 µg/mL (≈ 0.273 µM).
Compound `CC(C)(C#N)CN1CCC(c2nc(-c3cncnc3)ncc2-c2cccc(C#N)c2)CC1` [Compound 82] came in with a melting point of 182 °C. Further, in the data set on Staphylococcus aureus [2], the MIC90 was determined as 1 µg/mL (≈ 2.36 µM).
Consider `COc1cccc(-c2cnc(-c3ccc(C#N)cc3)nc2C2CCN(CC(F)(F)F)CC2)c1` [Compound 83], for which the melting point was 180 to 182 °C. In the data set with Staphylococcus aureus [2], the MIC90 stood at 0.125 µg/mL (≈ 0.276 µM).
Turning to `N#Cc1ccc(-c2ncc(-c3cccc(C#N)c3)c(C3CCN(CC(F)(F)F)CC3)n2)cc1` [Compound 84], the melting point is 249 to 251 °C. In the data set with Staphylococcus aureus [2], the MIC90 was determined as 0.125 µg/mL (≈ 0.279 µM).
For `COc1ccc(-c2ncc(-c3cccc(C#N)c3)c(C3CCN(CC(C)(C)C#N)CC3)n2)cn1` [Compound 85], in that order: 165 °C and 0.125 µg/mL (≈ 0.276 µM).
For `COc1cccc(-c2cnc(-c3ccc(C#N)cc3)nc2C2CCN(CC(C)(C)C#N)CC2)c1` [Compound 86], in that order: 207 °C and 0.125 µg/mL (≈ 0.277 µM).
For `CC(C)(C#N)CN1CCC(c2nc(-c3ccc(S(C)(=O)=O)cc3)ncc2-c2cccc(C#N)c2)CC1` [Compound 87], in that order: 101 to 122 °C and 2 µg/mL (≈ 4 µM).
`COc1cccc(-c2cnc(-c3ccc(Br)cc3)nc2C2CCN(CC(C)(C)C#N)CC2)c1` [Compound 88] yielded an MIC90 in the data set with Staphylococcus aureus [2] of 0.125 µg/mL (≈ 0.247 µM).
The compound `CC(C)(C)S(=O)(=O)N1CCC(c2nc(-c3ccc(F)cc3)ncc2-c2cccc(C#N)c2)CC1` [Compound 89] yielded an MIC90 in the data set with Staphylococcus aureus [2] of 0.125 µg/mL (≈ 0.261 µM).
Compound `COc1cccc(-c2cnc(-c3ccc(Br)cc3)nc2C2CCN(CC(C)(C)C)CC2)c1` [Compound 90] showed an MIC90 in the data set with Staphylococcus aureus [2] of 0.25 µg/mL (≈ 0.506 µM).
The same measure, in the same setting: next, `C#Cc1ccc(-c2ncc(-c3cccc(OC)c3)c(C3CCN(CC(C)(C)C)CC3)n2)cc1` [Compound 91]: 0.5 µg/mL (≈ 1.14 µM); `C#Cc1ccc(-c2ncc(-c3cccc(OC)c3)c(C3CCN(CC(C)(C)C#N)CC3)n2)cc1` [Compound 92]: 0.125 µg/mL (≈ 0.277 µM).
For `C#Cc1ccc(-c2ncc(-c3cccc(OC)c3)c(C3CCN(CC(F)(F)F)CC3)n2)cc1` [Compound 93], the MIC90 in the data set with Staphylococcus aureus [2] is 0.125 µg/mL (≈ 0.277 µM).

What is called IC90 is the concentration needed for an effect of 90%. Lower therefore signals an effect from little substance. A word on the CC50: it is the concentration at which the toxic effect on the cells reaches its halfway point. What is called melting point is the temperature of the solid-liquid transition. In general, MIC90 refers to the lowest concentration that inhibits either 90% of growth or 90% of the strains tested, depending on the study. Higher therefore signals lower susceptibility.

Values taken from patent US9725432B2, “Pyrimidine derivatives for the treatment of bacterial diseases” (JANSSEN R&D IRELAND, priority 2012, dated 2017).
